Paper PMC4890880 (ACS infectious diseases, 2016)
Read-outs that look alike come from different tables or passages of the source.

Key:
[1] = test system: Plasmodium berghei (Pb-Luc) exoerythrocytic-stage parasites; assay: microbe, parasite or virus in culture; details: for IC50: read-out: PbLuc IC50, dose response, 1/3 dilutions, max conc. 10 or 50 uM, unit inferred
HepG2-A16-CD81EGFP cells = assay: cells; details: Homo sapiens; for IC50: HepG2, read-out: Tox IC50; for inhibition at 50 µM: HepG2, read-out: Tox max inhibition (%) @ 50 uM
[2] = read-out: Inhibition% @ 50 uM rep1
[3] = read-out: Inhibition% @ 50 uM rep2
[4] = read-out: PbLuc max inhibition (%) @ 50 uM
[5] = HepG2, read-out: HepG2 Tox% @ 50 uM rep1
[6] = HepG2, read-out: HepG2 Tox% @ 50 uM rep2

Row | Structure (SMILES) | inhibition at 50 µM [1, 2] [%] | inhibition at 50 µM [1, 3] [%] | IC50 [1] [µM] | inhibition at 50 µM [1, 4] [%] | cytotoxicity at 50 µM (HepG2-A16-CD81EGFP cells; [5]) [%] | IC50 (HepG2-A16-CD81EGFP cells) [µM] | inhibition at 50 µM (HepG2-A16-CD81EGFP cells) [%] | cytotoxicity at 50 µM (HepG2-A16-CD81EGFP cells; [6]) [%]
1 | FC(F)(F)c1cccc(Nc2nc3ccccc3nc2Nc2cccc(C(F)(F)F)c2)c1 [MMV665794] | 103 | 102 | 0.667 | 100 | 100 | 1.9 | 102 | 
2 | O=C(CSc1nccn2nc(-c3ccccc3)cc12)Nc1cc(C(F)(F)F)ccc1Cl [MMV396678] | 68 | 82 |  |  | -13 |  |  | -3
3 | Cc1ccnc(NC(c2cccc(OCc3ccccc3)c2)c2ccc3cccnc3c2O)c1 (centres unmarked) [MMV000720] | 103 | 103 | 1.28 | 100 | 99 | 5.05 | 99 | 
4 | CCCOCc1cc(CN2CCN(c3cccc(Cl)c3)CC2)c(O)c2ncccc12 [MMV000787] | 100 | 100 | 0.94 | 101 | 93 | 3.49 | 100 | 
5 | Cc1ccc2nc(C)cc(Nc3cccc(C(F)(F)F)c3)c2c1 [MMV000326] | 103 | 103 |  |  | 100 |  |  | 
6 | c1ccc2c(NCCc3c[nH]c4ccccc34)c3ccccc3nc2c1 [MMV006513] | 98 | 101 |  |  | 97 |  |  | 
7 | O=c1nc(C=Cc2ccc(Br)cc2)oc2ccccc12 [MMV666599] | 102 | 103 |  |  | 70 |  |  | 
8 | CC1CC2=C(CC1CNCCCN(C)C)C(C)(C)CCC2 (centres unmarked) [MMV665830] | 102 | 102 |  |  | 98 |  |  | 
9 | CCOC(=O)c1cnc2ccc(OC)cc2c1Nc1ccc(N2CCN(C)CC2)cc1 [MMV000704] | 101 | 102 |  |  | 97 |  |  | 
10 | Cc1cc(N(C)C)nc(Nc2ccc(NC(=O)Nc3ccccc3)cc2)n1 [MMV020243] | 96 | 99 | 1.45 | 100 | 96 | 15.7 | 100 | 
11 | CC(O)(c1ccc(Cl)cc1)C(CN1CCCCC1)c1ccccc1 (centres unmarked) [MMV000620] | 101 | 102 |  |  | 63 |  |  | 90
12 | Cc1sc2ncnc(Sc3nc4ccccc4[nH]3)c2c1C [MMV019266] | 98 | 102 | 0.53 | 101 | 31 | > 50 | 28 | 47
13 | Cc1[nH]c(-c2ccc(F)cc2)cc1C(=O)NC1CCN(Cc2ccccc2)CC1 [MMV019738] | 103 | 102 |  |  | 97 |  |  | 98
14 | Nc1ccc(-c2nc3cc(Cc4ccc5[nH]c(-c6ccc(N)cc6)nc5c4)ccc3[nH]2)cc1 [MMV665943] | 103 | 104 | 10.1 | 97 | 99 | 14.6 | 95 | 
15 | CC(C)CCNCC(O)Cn1c2ccccc2c2ccccc21 (centres unmarked) [MMV006787] | 103 | 103 | 9.6 | 99 | 98 | 30.3 | 97 | 
16 | c1ccc(CNc2nc(Nc3ccccc3)nc3ccccc23)cc1 [MMV006169] | 103 | 104 |  |  | 101 |  |  | 

Row | Structure (SMILES) | inhibition at 50 µM [1, 2] [%] | inhibition at 50 µM [1, 3] [%] | IC50 [1] [µM] | inhibition at 50 µM [1, 4] [%] | cytotoxicity at 50 µM (HepG2-A16-CD81EGFP cells; [5]) [%] | IC50 (HepG2-A16-CD81EGFP cells) [µM] | inhibition at 50 µM (HepG2-A16-CD81EGFP cells) [%] | cytotoxicity at 50 µM (HepG2-A16-CD81EGFP cells; [6]) [%]
17 | CC(C)(C)c1ccc2c(c1)CN(Cc1ccc(Cl)cc1)CO2 [MMV000442] | 100 | 101 |  |  | 97 |  |  | 
18 | COc1ccc(C2c3ccc4ccccc4c3Oc3ncn(CCCn4ccnc4)c(=N)c32)cc1OC (centres unmarked) [MMV667490] | 104 | 104 |  |  | 102 |  |  | 
19 | Cc1ccc(Nc2nc(-c3ccccn3)cs2)cc1 [MMV007907] | 103 | 106 |  |  | 93 |  |  | 96
20 | COc1ccccc1N=C1C(=O)c2ccccc2C(O)=C1N1CCCCC1 [MMV085203] | 103 | 105 | 0.564 | 100 | 94 | 3.13 | 96 | 97
21 | CCOc1ccc(CN2CCN(CC(O)COc3ccc(OCC(O)CN4CCN(Cc5ccc(OCC)cc5)CC4)cc3)CC2)cc1 (centres unmarked) [MMV007092] | 103 | 104 | 12.4 | 99 | 98 | 41.6 | 65 | 
22 | Nc1ccc(-c2nc3cc(Oc4ccc(Oc5ccc6[nH]c(-c7ccc(N)cc7)nc6c5)cc4)ccc3[nH]2)cc1 [MMV011895] | 98 | 99 | 6.98 | 99 | 97 | 12.8 | 100 | 
23 | Clc1cc(Br)ccc1-c1ccc(CNCC2CCNCC2)o1 [MMV019918] | 103 | 105 | 8.14 | 99 | 97 | 15.6 | 100 | 99
24 | Cc1ccc(OCCCCCCNCCO)c(C)c1 [MMV666020] | 104 | 104 |  |  | 90 |  |  | 
25 | CC(=O)NCCc1nc2ccccc2n1Cc1ccc(C(C)C)cc1 [MMV007617] | 104 | 106 |  |  | 81 |  |  | 80
26 | O=C(NCC(c1ccsc1)N1CCCCCC1)c1ccc(C(F)(F)F)cc1 (centres unmarked) [MMV396672] | 104 | 104 |  |  | 98 |  |  | 99
27 | O=C(Nc1ccc(-c2nc3cc4ccccc4cc3[nH]2)cc1)c1cccc(Br)c1 [MMV019241] | 91 | 91 |  |  | 41 |  |  | 
28 | O=C(NC(c1ccccc1)c1ccc2cccnc2c1O)c1ccccc1 (centres unmarked) [MMV666080] | 101 | 102 | 1.55 | 101 | 92 | 4 | 84 | 93
29 | CN(N=O)C1=C(NC2CCCCC2)C(=O)c2ccccc2C1=O [MMV667492] | 103 | 104 |  |  | 98 |  |  | 
30 | CCCCCCn1c(=N)n(CC(O)COc2cccc(C)c2)c2ccccc21 (centres unmarked) [MMV000445] | 102 | 103 | 4.75 | 100 | 99 | 13.7 | 99 | 
31 | CC(=O)c1sc(NC(=O)Nc2ccc(C)cc2C)nc1C [MMV665894] | 3.42 | -0.396 |  |  | -26 |  |  | 
